# Calls of active or inactive are those of the source.
# Assays:
# Steroidogenic factor 1 = Steroidogenic factor 1 (Homo sapiens, UniProt Q13285); test: Counterscreen for inverse agonists of the liver receptor homolog-1 (LRH-1; NR5A2): Luminescence-based cell-based high throughput dose response assay to identify inverse agonists of the Steroidogenic Factor 1 Nuclear Receptor (SF1; NR5A1).; assay type: functional
# [1] = biological target: Nuclear receptor subfamily 5 group A member 2 (Homo sapiens, UniProt O00482); assay type: functional, cell-based;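 further: HEK293T cells transfected with LRH-1 and a StAR promoter luciferase reporter; potency for inhibitors that lower LRH-1 driven reporter light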
# Nuclear receptor subfamily 5 group A member 2, sequence (O00482 whole entry): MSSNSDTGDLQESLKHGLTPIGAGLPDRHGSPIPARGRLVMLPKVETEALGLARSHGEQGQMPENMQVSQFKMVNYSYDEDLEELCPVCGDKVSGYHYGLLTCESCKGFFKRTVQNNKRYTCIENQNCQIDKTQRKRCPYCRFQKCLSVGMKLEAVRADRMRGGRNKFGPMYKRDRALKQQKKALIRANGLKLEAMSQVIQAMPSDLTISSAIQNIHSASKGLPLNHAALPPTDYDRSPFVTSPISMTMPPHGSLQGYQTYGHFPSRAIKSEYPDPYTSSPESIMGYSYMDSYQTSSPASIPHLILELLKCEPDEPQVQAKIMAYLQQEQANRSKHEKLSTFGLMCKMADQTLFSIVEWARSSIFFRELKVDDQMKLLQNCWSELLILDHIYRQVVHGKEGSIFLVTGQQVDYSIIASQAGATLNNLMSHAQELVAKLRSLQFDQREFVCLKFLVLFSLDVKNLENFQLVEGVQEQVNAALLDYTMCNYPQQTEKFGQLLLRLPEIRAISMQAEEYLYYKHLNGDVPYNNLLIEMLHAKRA
# [2] = StAR promoter reporter inhibition counter-screen, dose response, counter-screen for LRH-1 inverse agonist project, cell-based, luminescence, luciferase reporter (AID 651969); assay type: functional
# [3] = biological target: T1, Disintegrin and metalloproteinase domain-containing protein 17 (Homo sapiens, UniProt P78536); test: ADAM17 protease inhibitors, dose response, counter-screen for ADAM10 exosite inhibitor project, biochemical, quenched FRET substrate (AID 743253)
# T1 sequence (P78536 whole entry, the tested form may be a part): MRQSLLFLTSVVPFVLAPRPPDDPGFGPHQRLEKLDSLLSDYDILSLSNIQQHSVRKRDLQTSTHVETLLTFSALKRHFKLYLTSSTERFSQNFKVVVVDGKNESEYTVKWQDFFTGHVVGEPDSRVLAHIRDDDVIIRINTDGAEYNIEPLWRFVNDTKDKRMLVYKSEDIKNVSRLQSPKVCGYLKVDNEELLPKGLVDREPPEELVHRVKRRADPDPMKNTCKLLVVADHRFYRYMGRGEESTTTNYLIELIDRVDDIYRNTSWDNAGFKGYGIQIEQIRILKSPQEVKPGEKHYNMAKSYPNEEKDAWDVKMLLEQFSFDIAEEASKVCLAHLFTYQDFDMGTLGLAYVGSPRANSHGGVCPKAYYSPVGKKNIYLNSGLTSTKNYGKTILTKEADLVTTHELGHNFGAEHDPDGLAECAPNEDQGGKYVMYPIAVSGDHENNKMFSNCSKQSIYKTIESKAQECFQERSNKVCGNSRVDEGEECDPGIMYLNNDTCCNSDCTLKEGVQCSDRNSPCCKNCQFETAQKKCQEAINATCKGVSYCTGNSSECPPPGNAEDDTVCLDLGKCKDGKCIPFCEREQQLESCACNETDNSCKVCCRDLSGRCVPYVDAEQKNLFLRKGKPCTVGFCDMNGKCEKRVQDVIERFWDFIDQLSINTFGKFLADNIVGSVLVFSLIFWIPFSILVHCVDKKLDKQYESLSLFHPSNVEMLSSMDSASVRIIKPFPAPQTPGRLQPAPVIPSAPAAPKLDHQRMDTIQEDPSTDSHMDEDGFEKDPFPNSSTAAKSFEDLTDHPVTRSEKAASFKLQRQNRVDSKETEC
# [4] = biological target: T1, Disintegrin and metalloproteinase domain-containing protein 17; test: exosite inhibitors of ADAM17, dose response, biochemical (AID 743260)
# [5] = ADAM10 inhibitors, peptide cleavage, dose response, biochemical, QFRET (AID 743254);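 further: ADAM10 enzyme with the DM2 quenched FRET peptide as substrate; EDANS fluorescence gain as the protease cuts the substrate; inhibitor potency against ADAM10 proteolytic activity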
# [6] = biological target: T2, Oxysterols receptor LXR-beta (Homo sapiens, UniProt P55055); assay type: functional, cell-based;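 further: agonist activity at LXR measured by a cell-based luminescence readout across a dose range, run as a counterscreen for daf-12 agonists; HEK293 cells with Gal4-LXR fusion and GAL4-driven luciferase reporter; potency for activation of Gal4-LXR reporter so compounds are agonists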
# T2 sequence (P55055 whole entry): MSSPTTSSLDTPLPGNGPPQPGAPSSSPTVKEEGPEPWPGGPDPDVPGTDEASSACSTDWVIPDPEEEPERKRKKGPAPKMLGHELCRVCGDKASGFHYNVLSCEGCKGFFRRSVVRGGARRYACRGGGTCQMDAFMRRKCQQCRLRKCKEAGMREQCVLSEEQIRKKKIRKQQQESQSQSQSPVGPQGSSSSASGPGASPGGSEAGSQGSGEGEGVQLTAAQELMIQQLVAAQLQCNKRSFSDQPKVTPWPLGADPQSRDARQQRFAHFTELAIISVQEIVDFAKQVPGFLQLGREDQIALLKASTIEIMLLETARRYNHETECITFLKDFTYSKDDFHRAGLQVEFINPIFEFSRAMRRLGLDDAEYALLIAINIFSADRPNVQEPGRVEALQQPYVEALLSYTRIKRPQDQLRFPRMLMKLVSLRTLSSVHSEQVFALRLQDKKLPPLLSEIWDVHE
# [7] = biological target: T3, Corticotropin-releasing factor receptor 2/Corticotropin-releasing factor-binding protein (Homo sapiens, UniProt P24387+Q13324); test: Dose Response confirmation of uHTS hits for small molecule antagonists of the CRF-binding protein and CRF-R2 receptor complex.; assay type: functional; settings: read-out: IC50_Mean
# T3 sequence (Q13324 whole entry): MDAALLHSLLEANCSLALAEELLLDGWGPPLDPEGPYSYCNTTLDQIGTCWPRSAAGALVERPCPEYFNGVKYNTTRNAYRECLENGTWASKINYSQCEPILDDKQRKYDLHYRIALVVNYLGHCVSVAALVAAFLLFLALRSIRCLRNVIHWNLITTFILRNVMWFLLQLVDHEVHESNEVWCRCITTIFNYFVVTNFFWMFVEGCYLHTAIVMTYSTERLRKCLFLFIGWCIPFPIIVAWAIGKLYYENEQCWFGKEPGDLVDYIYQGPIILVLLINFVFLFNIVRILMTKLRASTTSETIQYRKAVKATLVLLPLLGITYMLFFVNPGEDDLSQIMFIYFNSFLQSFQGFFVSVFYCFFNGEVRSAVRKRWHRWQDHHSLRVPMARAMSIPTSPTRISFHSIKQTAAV
# T3 sequence (P24387 whole entry): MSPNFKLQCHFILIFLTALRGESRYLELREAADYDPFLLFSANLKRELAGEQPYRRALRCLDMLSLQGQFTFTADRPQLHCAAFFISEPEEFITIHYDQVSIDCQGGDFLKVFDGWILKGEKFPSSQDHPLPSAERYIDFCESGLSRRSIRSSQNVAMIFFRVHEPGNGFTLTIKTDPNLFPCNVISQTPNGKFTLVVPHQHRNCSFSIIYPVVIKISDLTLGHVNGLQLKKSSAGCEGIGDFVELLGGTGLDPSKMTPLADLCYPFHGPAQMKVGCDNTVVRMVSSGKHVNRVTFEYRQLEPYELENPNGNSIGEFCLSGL
# [8] = CRF-BP/CRF-R2 complex antagonists, dose response, cell-based, uHTS hits, 384-well (AID 651639); assay type: functional, Homo sapiens; settings: read-out: IC50_Mean
# [9] = biological target: T3, Corticotropin-releasing factor receptor 2/Corticotropin-releasing factor-binding protein; test: activators of CRF receptor 2 with binding protein – uHTS hits, confirmation (AID 602473); assay type: functional; settings: read-out: EC50_Mean
# [10] = inhibitors of firefly luciferase expression or activity, dose response, H4 neuroglioma cells, luminescence (AID 1990); assay type: functional, cell-based
# [11] = test system: Streptococcus sp. 'group A'; test: growth inhibition of control SK(-) GAS strain, dose response, counter-screen for streptokinase expression inhibitor project, luminescence, kanamycin, BacTiterGlo, confirmation (AID 1900); assay type: functional, organism-based
# Streptokinase A = biological target: T4, Streptokinase A (Streptococcus pyogenes serotype M1, UniProt P10520); test: S. pyogenes streptokinase expression inhibitors, potency, dose response, plasminogen activation absorbance, OD405 (AID 1914); assay type: functional, Streptococcus pyogenes M1 GAS;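 further: secreted streptokinase activity via plasminogen activation per viability signal from cell pellet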
# T4 sequence (P10520 whole entry): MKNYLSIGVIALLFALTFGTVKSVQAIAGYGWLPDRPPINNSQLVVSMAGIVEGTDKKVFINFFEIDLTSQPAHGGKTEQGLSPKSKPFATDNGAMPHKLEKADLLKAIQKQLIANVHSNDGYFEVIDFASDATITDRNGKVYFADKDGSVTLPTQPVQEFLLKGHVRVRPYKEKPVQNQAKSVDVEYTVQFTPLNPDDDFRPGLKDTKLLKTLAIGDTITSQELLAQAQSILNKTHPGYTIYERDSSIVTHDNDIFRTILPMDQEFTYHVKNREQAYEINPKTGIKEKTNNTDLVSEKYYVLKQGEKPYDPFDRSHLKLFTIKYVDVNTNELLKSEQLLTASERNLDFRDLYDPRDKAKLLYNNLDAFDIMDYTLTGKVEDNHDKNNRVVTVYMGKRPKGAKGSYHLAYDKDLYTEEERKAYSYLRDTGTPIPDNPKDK
# [12] = Luminescence Cell-Based Dose Response HTS to Identify Inhibitors of 5'UTR Stem-Loop Driven Prion Protein mRNA Translation in H4 Neuroglioblastoma Cells. [Related pubchem assays: 1827 (Project Summary), 1813 (Primary HTS)]; assay type: functional
# Streptococcus = test: Group A Streptococcus viability loss, dose response, counter-screen for streptokinase expression inhibitor project, luminescence, BacTiterGlo (AID 1915); assay type: functional, organism-based;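 further: potency for reduction of bacterial viability or growth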
# [13] = inhibitors of SNCA 5'UTR-driven reporter translation, confirmation, H4 neuroglioma cells, luminescence (AID 1988); assay type: functional, cell-based
# cells [14] = assay type: functional, cell-based
# cells [15] = assay type: functional, cell-based; remark: listed apart in the source
# cells [16] = assay type: functional, cell-based; remark: listed apart in the source
# [17] = biological target: T5, Nuclear receptor subfamily 0 group B member 1 (Homo sapiens, UniProt P51843); assay type: functional, cell-based;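 further: HEK293T cells transfected with SF-1 and DAX-1 plus StAR promoter luciferase reporter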
# T5 sequence (P51843 whole entry): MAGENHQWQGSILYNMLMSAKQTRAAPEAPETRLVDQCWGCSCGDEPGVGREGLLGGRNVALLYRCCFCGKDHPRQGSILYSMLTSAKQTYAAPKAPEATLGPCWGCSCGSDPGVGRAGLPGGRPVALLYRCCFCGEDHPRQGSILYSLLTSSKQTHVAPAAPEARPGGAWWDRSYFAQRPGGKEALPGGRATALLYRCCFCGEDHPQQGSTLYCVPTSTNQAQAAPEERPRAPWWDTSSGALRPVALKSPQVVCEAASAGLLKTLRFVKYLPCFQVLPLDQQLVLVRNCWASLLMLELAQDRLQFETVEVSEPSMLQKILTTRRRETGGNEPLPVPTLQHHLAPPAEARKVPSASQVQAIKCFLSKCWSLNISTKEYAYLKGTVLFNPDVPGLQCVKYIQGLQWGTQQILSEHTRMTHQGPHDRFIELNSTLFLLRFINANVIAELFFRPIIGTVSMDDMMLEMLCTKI
# [18] = ADAM10 protease inhibitors, dose response, selectivity assay for ADAM17 exosite inhibitor project, biochemical, FRET peptide substrate, recombinant human ADAM10 (AID 743259);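 further: ADAM10 enzyme cleaving a FRET peptide substrate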
# Caspase-6 = biological target: T6, Caspase-6 (Homo sapiens, UniProt P55212); test: human caspase-6 inhibitors, dose response, biochemical, VEID-R110 fluorescence, cherry-pick (AID 720632)
# T6 sequence (P55212 whole entry): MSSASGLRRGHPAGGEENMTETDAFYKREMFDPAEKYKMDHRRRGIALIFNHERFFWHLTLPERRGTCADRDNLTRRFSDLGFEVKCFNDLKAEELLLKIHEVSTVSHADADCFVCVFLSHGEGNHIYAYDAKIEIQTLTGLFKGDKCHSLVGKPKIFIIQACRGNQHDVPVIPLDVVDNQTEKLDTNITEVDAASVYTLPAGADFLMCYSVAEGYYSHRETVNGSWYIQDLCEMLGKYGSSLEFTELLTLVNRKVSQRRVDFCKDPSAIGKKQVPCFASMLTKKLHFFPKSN
# Steroidogenic factor 1, sequence (Q13285 whole entry): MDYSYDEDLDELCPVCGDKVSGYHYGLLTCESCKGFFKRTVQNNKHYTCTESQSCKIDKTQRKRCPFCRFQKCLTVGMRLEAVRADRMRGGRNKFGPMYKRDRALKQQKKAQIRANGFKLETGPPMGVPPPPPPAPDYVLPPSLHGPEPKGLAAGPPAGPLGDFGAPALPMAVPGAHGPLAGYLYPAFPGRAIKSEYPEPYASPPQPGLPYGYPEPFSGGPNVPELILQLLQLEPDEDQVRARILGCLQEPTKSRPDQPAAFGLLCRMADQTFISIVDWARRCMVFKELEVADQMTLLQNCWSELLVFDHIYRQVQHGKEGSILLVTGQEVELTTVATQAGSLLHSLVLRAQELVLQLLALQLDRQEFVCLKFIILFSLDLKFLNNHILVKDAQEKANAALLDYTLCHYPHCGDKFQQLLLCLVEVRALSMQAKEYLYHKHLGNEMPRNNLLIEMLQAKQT
structure (smiles),measurement,setting,value
CC1CCC2(CC1)NC(=O)N(CC(=O)Nc1ccc3c(c1)OCCCO3)C2=O (stereo not drawn),IC50,Steroidogenic factor 1,1.02 µM (active)
same,IC50,[1],6.2 µM (active)
same,IC50,[2],35.9 µM (inactive)
CC(=O)c1cccc(NC(=O)C(OC(=O)c2ccccc2NS(=O)(=O)c2cccs2)c2ccccc2)c1 (stereo not drawn),IC50,[3],> 69.5 µM (inactive)
same,IC50,[4],> 69.5 µM (inactive)
same,IC50,[5],> 69.5 µM (inactive)
c1ccc(Nc2nc(-c3cccnc3)cs2)nc1,EC50,[6],> 67.6 µM (inactive)
CCN(CC)C1Oc2cc3c(cc2C(c2cccc(OC)c2O)C1C)OCO3 (stereo not drawn),IC50,[7],2.99 µM (active)
same,IC50,[8],5.28 µM (active)
same,EC50,[9],> 53 µM (inactive)
Cn1cc(C(=O)c2ccc(Cl)cc2Cl)cc1C(=O)NN=C(N)COc1ccc(Cl)cc1Cl,IC50,[3],> 69.5 µM (inactive)
same,EC50,[10],> 120 µM (not active)
same,EC50,[11],0.927 µM (active)
same,EC50,Streptokinase A,> 150 µM (not active)
same,IC50,[5],> 69.5 µM (inactive)
same,EC50,[12],24.3 µM (active)
same,EC50,Streptococcus,43.9 µM (active)
same,EC50,[13],9.69 µM (active)
COc1ccc(C(=O)Nc2cc(=O)n(C)c(=O)n2C)cc1,IC50,[7],< 0.368 µM (active)
same,IC50,[8],> 20 µM (inactive)
same,EC50,[9],> 53 µM (inactive)
O=C(Cc1nnc(O)nc1O)N/N=C/c1ccccc1O,IC50,cells [14],> 29.9 µM (inactive)
same,EC50,cells [15],> 29.9 µM (inactive)
CCOc1ccc(Cl)cc1S(=O)(=O)n1nnc2ccccc21,IC50,[7],3.56 µM (active)
same,IC50,[8],2.16 µM (active)
same,EC50,[9],> 53 µM (inactive)
c1csc(-c2nnc(-c3ccc(N4CCOCC4)cc3)o2)c1,EC50,[6],> 67.5 µM (inactive)
CC1CCc2c(sc(NC(=O)C3=COCCO3)c2C(N)=O)C1 (stereo not drawn),EC50,[6],> 67.5 µM (inactive)
Cc1ccc(NC(=O)c2cc3c(s2)CCCC3)cc1S(=O)(=O)Nc1ccccc1Cl,IC50,[3],> 69.5 µM (inactive)
same,IC50,[5],> 69.5 µM (inactive)
CCOc1ccc(OCCC(=O)OCC(=O)Nc2ccc3c(c2)OCCO3)cc1,IC50,Steroidogenic factor 1,12.7 µM (inactive)
same,IC50,[1],35.9 µM (inactive)
same,IC50,[2],35.9 µM (inactive)
COc1ccccc1NC(=O)CN1CCN(CC(=O)Nc2ccc3c(c2)OCCO3)CC1,IC50,Steroidogenic factor 1,0.985 µM (active)
same,IC50,[1],4.02 µM (active)
same,IC50,[2],35.9 µM (inactive)
Cc1cc(C(=O)CSc2nnc(N)s2)c(C)n1C1CC1,IC50,cells [16],> 67.6 µM (inactive)
same,IC50,[17],> 67.6 µM (inactive)
Cc1ccsc1C(=O)OCC(=O)c1cc(C)n(C)c1C,IC50,cells [16],> 67.6 µM (inactive)
same,IC50,[17],> 0.278 µM (active)
CNC(=O)C1CC(=O)N=C(N/N=C(\C)c2cccs2)S1 (stereo not drawn),IC50,[4],> 69.5 µM (inactive)
same,IC50,[18],> 23.2 µM (inactive)
NC(=O)c1c(NC(=O)C2CC=CCC2C(=O)O)sc2c1CCCCC2 (stereo not drawn),AC50,Caspase-6,5.79 µM (active)

# From ChEMBL document CHEMBL1201862, “PubChem BioAssay data set” (2004)
